Assay results taken from PubChem BioAssay AID256 (DTP/NCI, 2004).
Where “and” joins values, the source holds several entries; their conditions need not be identical. Equal entries are not always repeated. Toxic doses and inconclusive results are not listed. Non-standard residues stand in square brackets, D forms with d. Residues, ends and D or L forms follow the SMILES beside them. Ac5c = NC1(C(=O)O)CCCC1

Tested on: CD2F1 mice, L1210 leukemia ip, survival T/C
Assay: NCI In Vivo Anticancer Drug Screen. Data for tumor model L1210 Leukemia (intraperitoneal) in CD2F1 (CDF1) mice
Conditions: endpoint: mean survival time, higher = longer survival
Method in brief: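 In this screen, transplantable tumors were grown in mice given either the compound or its vehicle. Results were expressed as the treated measurement relative to the control measurement.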

[1] = dose: 100.0 mg/kg/injection, schedule: Q01DX009 (ip), vehicle: saline with Tween-80
[2] = dose: 200.0 mg/kg/injection, schedule: Q01DX009 (ip), vehicle: saline with Tween-80
[3] = dose: 400.0 mg/kg/injection, schedule: Q01DX009 (ip), vehicle: saline with Tween-80
[4] = dose: 100.0 mg/kg/injection, schedule: Q04DX003 (ip), vehicle: saline with Tween-80
[5] = dose: 200.0 mg/kg/injection, schedule: Q04DX003 (ip), vehicle: saline with Tween-80
[6] = dose: 400.0 mg/kg/injection, schedule: Q04DX003 (ip), vehicle: saline with Tween-80
[7] = dose: 50.0 mg/kg/injection, schedule: Q01DX009 (ip), vehicle: saline with Tween-80
[8] = dose: 100.0 mg/kg/injection, schedule: Q04DX002 (ip), vehicle: saline with Tween-80
[9] = dose: 200.0 mg/kg/injection, schedule: Q04DX002 (ip), vehicle: saline with Tween-80
[10] = dose: 400.0 mg/kg/injection, schedule: Q04DX002 (ip), vehicle: saline with Tween-80
[11] = dose: 25.0 mg/kg/injection, schedule: Q01DX009 (ip), vehicle: saline
[12] = dose: 50.0 mg/kg/injection, schedule: Q01DX009 (ip), vehicle: saline
[13] = dose: 100.0 mg/kg/injection, schedule: Q01DX009 (ip), vehicle: saline
[14] = dose: 3.13 mg/kg/injection, schedule: Q04DX002 (ip), vehicle: saline
[15] = dose: 6.25 mg/kg/injection, schedule: Q04DX002 (ip), vehicle: saline
[16] = dose: 12.5 mg/kg/injection, schedule: Q04DX003 (ip), vehicle: saline with Tween-80
[17] = dose: 25.0 mg/kg/injection, schedule: Q04DX003 (ip), vehicle: saline with Tween-80

O=[N+]([O-])c1ccc(OCc2ccccc2)cc1
T/C [1]: 98 % of control
T/C [2]: 98 % of control
T/C [3]: 98 % of control

OC(CN=C/C=C/c1ccccc1)c1ccccc1 (stereo not given)
T/C [4]: 95 % of control
T/C [5]: 89 % of control
T/C [6]: 92 % of control

O=C(O)/C=C/C(=O)Nc1ccccc1[N+](=O)[O-]
T/C [7]: 102 % of control
T/C [1]: 104 % of control
T/C [2]: 94 % of control

[Cl][Mo]([Cl])([Cl])[Cl].[Cl][Mo]([Cl])([Cl])[Cl]
T/C (dose: 100.0 mg/kg/injection, schedule: Q04DX002 (ip), vehicle: saline): 112 % of control
T/C (dose: 200.0 mg/kg/injection, schedule: Q04DX002 (ip), vehicle: saline): 87 % of control
T/C (dose: 400.0 mg/kg/injection, schedule: Q04DX002 (ip), vehicle: saline): 108 % of control

NCC(=O)NC1(C(=O)O)CCCC1 (H-Gly-[Ac5c]-OH)
T/C (dose: 62.5 mg/kg/injection, schedule: Q01DX001 (ip), vehicle: saline): 87 % of control
T/C (dose: 62.5 mg/kg/injection, schedule: Q04DX003 (ip), vehicle: saline): 107 % of control
T/C (dose: 125.0 mg/kg/injection, schedule: Q01DX001 (ip), vehicle: saline): 91 % of control
T/C (dose: 125.0 mg/kg/injection, schedule: Q04DX003 (ip), vehicle: saline): 107 % of control
T/C (dose: 250.0 mg/kg/injection, schedule: Q01DX001 (ip), vehicle: saline): 112 % of control
T/C (dose: 500.0 mg/kg/injection, schedule: Q04DX003 (ip), vehicle: saline): 152 % of control

OCCC(c1ccccc1)C1CCCCN1 (stereo not given)
T/C (dose: 75.0 mg/kg/injection, schedule: Q01DX001 (ip), vehicle: saline): 101 % of control
T/C (dose: 150.0 mg/kg/injection, schedule: Q01DX001 (ip), vehicle: saline): 100 % of control

CCN(C(=O)Nc1ccccc1)c1ccccc1
T/C (dose: 75.0 mg/kg/injection, schedule: Q04DX003 (ip), vehicle: saline with Tween-80): 98 % of control
T/C (dose: 150.0 mg/kg/injection, schedule: Q04DX003 (ip), vehicle: saline with Tween-80): 98 % of control
T/C (dose: 300.0 mg/kg/injection, schedule: Q04DX003 (ip), vehicle: saline with Tween-80): 106 % of control

COc1ccc(NC(=O)C2C3C=CC(C3)C2C(=O)O)cc1 (stereo not given)
T/C [4]: 98 % of control
T/C [5]: 98 % of control

CCCN(CCC)S(=O)(=O)c1ccc(NC(=O)OC2CC(C)CCC2C(C)C)cc1 (stereo not given)
T/C (dose: 100.0 mg/kg/injection, schedule: Q01DX001 (ip), vehicle: saline): 105 % of control
T/C (dose: 200.0 mg/kg/injection, schedule: Q01DX001 (ip), vehicle: saline): 100 % of control
T/C (dose: 400.0 mg/kg/injection, schedule: Q01DX001 (ip), vehicle: saline): 95 % of control

CCCCCCOc1ccc(C=Nc2ccc(CC)cc2)cc1
T/C [4]: 88 % of control
T/C [5]: 91 % of control
T/C [6]: 88 % of control

CN(N=O)c1nnnn1C
T/C (dose: 100.0 mg/kg/injection, schedule: Q04DX003 (ip), vehicle: saline): 105 % of control
T/C (dose: 200.0 mg/kg/injection, schedule: Q04DX003 (ip), vehicle: saline): 103 % of control
T/C (dose: 400.0 mg/kg/injection, schedule: Q04DX003 (ip), vehicle: saline): 106 % of control

O=C1c2ccccc2C(=O)N1c1nc2ccccc2s1
T/C [8]: 96 % of control
T/C [9]: 89 % of control
T/C [10]: 100 % of control

N/C(=N\O)c1cn(C2OC(CO)C(O)C2O)c2ncncc12 (stereo not given)
T/C [11]: 159 % of control
T/C [12]: 168 % of control
T/C [13]: 102 % of control

O=c1cc(NCCCCc2ccccc2)[nH]c(=O)[nH]1
T/C (dose: 100.0 mg/kg/injection, schedule: Q01DX001 (ip), vehicle: saline with Tween-80): 94 % of control
T/C (dose: 200.0 mg/kg/injection, schedule: Q01DX001 (ip), vehicle: saline with Tween-80): 91 % of control
T/C (dose: 400.0 mg/kg/injection, schedule: Q01DX001 (ip), vehicle: saline with Tween-80): 91 % of control

CC1=CC(C)(C(Cl)Cl)C=CC1=O (stereo not given)
T/C (dose: 75.0 mg/kg/injection, schedule: Q01DX009 (ip), vehicle: saline with Tween-80): 101 % of control
T/C [4]: 102 % of control
T/C (dose: 150.0 mg/kg/injection, schedule: Q01DX009 (ip), vehicle: saline with Tween-80): 101 % of control
T/C [5]: 95 % of control
T/C (dose: 300.0 mg/kg/injection, schedule: Q01DX009 (ip), vehicle: saline with Tween-80): 98 % of control
T/C [6]: 93 % of control

O=C(/C=C1\C(=O)Nc2ccccc21)/C=C1/C(=O)Nc2ccccc21
T/C (dose: 25.0 mg/kg/injection, schedule: Q01DX009 (ip), vehicle: Klucel (hydroxypropylcellulose) (HPC)): 97 % of control
T/C (dose: 50.0 mg/kg/injection, schedule: Q01DX009 (ip), vehicle: Klucel (hydroxypropylcellulose) (HPC)): 104 % of control
T/C (dose: 100.0 mg/kg/injection, schedule: Q01DX009 (ip), vehicle: Klucel (hydroxypropylcellulose) (HPC)): 95 % of control

CN(Cc1ccccc1)N=Nc1ccc(C(=O)O)cc1
T/C (dose: 25.0 mg/kg/injection, schedule: Q01DX009 (ip), vehicle: other): 105 % of control
T/C (dose: 50.0 mg/kg/injection, schedule: Q01DX009 (ip), vehicle: other): 108 % of control
T/C (dose: 100.0 mg/kg/injection, schedule: Q01DX009 (ip), vehicle: other): 101 % of control

CCOC(=O)C(C(=O)OCC)=C1CCC(=O)O1
T/C [8]: 111 % of control
T/C [9]: 90 % of control

CCCCCCCCCCCCCCCCCCNC(=S)NCCCCCCCCCCCCCCCCCC
T/C (dose: 12.5 mg/kg/injection, schedule: Q01DX009 (ip), vehicle: saline with Tween-80): 97 % of control
T/C (dose: 25.0 mg/kg/injection, schedule: Q01DX009 (ip), vehicle: saline with Tween-80): 98 % of control
T/C [7]: 90 % of control and 98 % of control
T/C [1]: 90 % of control

CC1(O)OOC(=O)C1(C)C (stereo not given)
T/C (dose: 5.0 mg/kg/injection, schedule: Q01DX001 (ip), vehicle: saline with Tween-80): 91 % of control
T/C (dose: 10.0 mg/kg/injection, schedule: Q01DX001 (ip), vehicle: saline with Tween-80): 91 % of control
T/C (dose: 20.0 mg/kg/injection, schedule: Q01DX001 (ip), vehicle: saline with Tween-80): 92 % of control

NC1CCCCC1N.NC1CCCCC1N.[Cl-].[Cu+] (stereo not given)
T/C (dose: 1.56 mg/kg/injection, schedule: Q04DX002 (ip), vehicle: saline): 97 % of control
T/C [14]: 97 % of control
T/C [15]: 97 % of control

NNC(=O)c1ccc(Cl)cc1Cl
T/C (dose: 6.25 mg/kg/injection, schedule: Q04DX003 (ip), vehicle: saline with Tween-80): 97 % of control
T/C [16]: 101 % of control
T/C [17]: 103 % of control

C[N+]1(C)CCOC(O)(c2ccc(-c3ccccc3)cc2)C1 (stereo not given)
T/C [14]: 98 % of control
T/C [15]: 91 % of control

CCCCn1c(=O)cc(C(=O)O)c2ccccc21
T/C [1]: 93 % of control
T/C [2]: 97 % of control
T/C [3]: 89 % of control

O=C(NNC(=O)c1c(F)c(F)c(F)c(F)c1F)c1c(F)c(F)c(F)c(F)c1F
T/C [1]: 97 % of control
T/C [2]: 97 % of control

NC(=O)c1ccc([N+](=O)[O-])cc1Cl
T/C [8]: 102 % of control
T/C [9]: 94 % of control
T/C [10]: 94 % of control

CN1CCC(=C(C#N)C#N)CC1
T/C [11]: 103 % of control
T/C [12]: 94 % of control
T/C [13]: 96 % of control

CS(=O)(=O)CC#N
T/C (dose: 6.25 mg/kg/injection, schedule: Q04DX002 (ip), vehicle: saline with Tween-80): 91 % of control and 109 % of control
T/C (dose: 12.5 mg/kg/injection, schedule: Q01DX001 (ip), vehicle: saline with Tween-80): 93 % of control
T/C (dose: 12.5 mg/kg/injection, schedule: Q01DX009 (ip), vehicle: saline): 92 % of control
T/C (dose: 12.5 mg/kg/injection, schedule: Q04DX002 (ip), vehicle: saline with Tween-80): 91 % of control and 102 % of control
T/C [16]: 97 % of control
T/C (dose: 25.0 mg/kg/injection, schedule: Q01DX001 (ip), vehicle: saline with Tween-80): 106 % of control
T/C [11]: 92 % of control and 98 % of control
T/C (dose: 25.0 mg/kg/injection, schedule: Q04DX002 (ip), vehicle: saline with Tween-80): 94 % of control and 101 % of control
T/C (dose: 25.0 mg/kg/injection, schedule: Q04DX002 (ip), vehicle: saline): 99 % of control and 103 % of control
T/C [17]: 97 % of control
T/C (dose: 50.0 mg/kg/injection, schedule: Q01DX001 (ip), vehicle: saline with Tween-80): 100 % of control
T/C (dose: 50.0 mg/kg/injection, schedule: Q04DX002 (ip), vehicle: saline): 100 % of control
